According to PubChem BioAssay (NCI):
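Cells were grown in 96-well plates and exposed to each compound for 48 hours at five concentrations; endpoints were interpolated linearly between bracketing concentrations, or set to the highest concentration if not reached. Definition used: TGI = concentration required for complete inhibition of growth.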

Experiments:
Assay in all cases: NCI anticancer screen, dose series, 48 h
[1] = tested on: RXF 393 renal
[2] = tested on: HT29 colon
[3] = tested on: SF-295 CNS
[4] = tested on: SK-OV-3 ovarian
[5] = tested on: CCRF-CEM leukemia
[6] = tested on: SNB-78 CNS
[7] = tested on: DMS 114 small cell lung
[8] = tested on: MALME-3M melanoma
[9] = tested on: HCC-2998 colon
[10] = tested on: A549 NSCLC
[11] = tested on: NCI-H522 lung
[12] = tested on: RPMI-8226 leukemia
[13] = tested on: M19-MEL melanoma
[14] = tested on: K-562 leukemia
[15] = tested on: HOP-92 NSCLC
[16] = tested on: HCT-15 colon
[17] = tested on: NCI-H226 lung
[18] = tested on: SF-268 CNS
[19] = tested on: LXFL 529 NSCLC
[20] = tested on: UO-31 renal
[21] = tested on: KM12 colon
[22] = tested on: OVCAR-8 ovarian
[23] = tested on: LOX IMVI melanoma
[24] = tested on: NCI-H23 lung
[25] = tested on: MOLT-4 leukemia
[26] = tested on: COLO 205 colon
[27] = tested on: OVCAR-4 ovarian
[28] = tested on: SW-620 colon
[29] = tested on: UACC-257 melanoma
[30] = tested on: U251 CNS
[31] = tested on: 786-0 renal
[32] = tested on: SK-MEL-2 melanoma
[33] = tested on: UACC-62 melanoma
[34] = tested on: EKVX NSCLC
[35] = tested on: OVCAR-5 ovarian
[36] = tested on: IGROV1 ovarian
[37] = tested on: ACHN renal
[38] = tested on: SNB-19 CNS
[39] = tested on: SN12C renal
[40] = tested on: HCT-116 colon
[41] = tested on: A498 renal
[42] = tested on: SF-539 CNS
[43] = tested on: CAKI-1 renal
[44] = tested on: SK-MEL-5 melanoma
[45] = tested on: SK-MEL-28 melanoma
[46] = tested on: HL-60(TB) leukemia
[47] = tested on: HOP-18 NSCLC
[48] = tested on: M14 melanoma
[49] = tested on: TK-10 renal
[50] = tested on: DMS 273 small cell lung
[51] = tested on: HOP-62 NSCLC
[52] = tested on: XF 498 CNS
[53] = tested on: NCI-H460 lung
[54] = tested on: OVCAR-3 ovarian
[55] = tested on: SNB-75 CNS
[56] = tested on: KM20L2 colon
[57] = tested on: DLD-1 colon
[58] = tested on: MDA-MB-435
[59] = tested on: BT-549 breast
[60] = tested on: T-47D breast
[61] = tested on: HS 578T breast
[62] = tested on: DU-145 prostate

## COc1cc(/C=N/N=C(\N)NO)c(Cl)cc1O
[1]
  TGI: > 100 µM
[2]
  TGI: > 100 µM
[3]
  TGI: > 100 µM
[4]
  TGI: > 100 µM
[5]
  TGI: > 100 µM
[6]
  TGI: > 100 µM
[7]
  TGI: > 100 µM
[8]
  TGI: > 100 µM
[9]
  TGI: > 100 µM
[10]
  TGI: > 100 µM
[11]
  TGI: > 100 µM
[12]
  TGI: > 100 µM
[13]
  TGI: > 100 µM
[14]
  TGI: > 100 µM
[15]
  TGI: 73.2 µM
[16]
  TGI: > 100 µM
[17]
  TGI: > 100 µM
[18]
  TGI: > 100 µM
[19]
  TGI: > 100 µM
[20]
  TGI: > 100 µM
[21]
  TGI: > 100 µM
[22]
  TGI: > 100 µM
[23]
  TGI: > 100 µM
[24]
  TGI: > 100 µM
[25]
  TGI: > 100 µM
[26]
  TGI: > 100 µM
[27]
  TGI: > 100 µM
[28]
  TGI: > 100 µM
[29]
  TGI: > 100 µM
[30]
  TGI: > 100 µM
[31]
  TGI: > 100 µM
[32]
  TGI: > 100 µM
[33]
  TGI: > 100 µM
[34]
  TGI: > 100 µM
[35]
  TGI: > 100 µM
[36]
  TGI: > 100 µM
[37]
  TGI: > 100 µM
[38]
  TGI: > 100 µM
[39]
  TGI: > 100 µM
[40]
  TGI: > 100 µM
[41]
  TGI: > 100 µM
[42]
  TGI: > 100 µM
[43]
  TGI: > 100 µM
[44]
  TGI: > 100 µM
[45]
  TGI: > 100 µM

## COC1OC2COC(C)(C)OC2C(OC(C)=O)C1NC(=O)N(CCCl)N=O (centres undefined)
[1]
  TGI: > 100 µM
[2]
  TGI: > 100 µM
[3]
  TGI: > 100 µM
[4]
  TGI: > 100 µM
[46]
  TGI: 53.3 µM
[5]
  TGI: > 100 µM
[6]
  TGI: > 100 µM
[7]
  TGI: > 100 µM
[8]
  TGI: > 100 µM
[9]
  TGI: > 100 µM
[10]
  TGI: > 100 µM
[47]
  TGI: > 100 µM
[11]
  TGI: 67.1 µM
[13]
  TGI: > 100 µM
[14]
  TGI: > 100 µM
[16]
  TGI: > 100 µM
[17]
  TGI: > 100 µM
[48]
  TGI: > 100 µM
[18]
  TGI: > 100 µM
[19]
  TGI: > 100 µM
[49]
  TGI: > 100 µM
[50]
  TGI: > 100 µM
[21]
  TGI: > 100 µM
[22]
  TGI: > 100 µM
[51]
  TGI: > 100 µM
[23]
  TGI: > 100 µM
[24]
  TGI: > 100 µM
[25]
  TGI: > 100 µM
[26]
  TGI: > 100 µM
[27]
  TGI: > 100 µM
[52]
  TGI: > 100 µM
[28]
  TGI: > 100 µM
[29]
  TGI: > 100 µM
[30]
  TGI: > 100 µM
[53]
  TGI: > 100 µM
[31]
  TGI: > 100 µM
[32]
  TGI: > 100 µM
[33]
  TGI: > 100 µM
[34]
  TGI: > 100 µM
[35]
  TGI: > 100 µM
[54]
  TGI: > 100 µM
[36]
  TGI: > 100 µM
[37]
  TGI: > 100 µM
[38]
  TGI: > 100 µM
[39]
  TGI: > 100 µM
[55]
  TGI: > 100 µM
[56]
  TGI: > 100 µM
[40]
  TGI: > 100 µM
[41]
  TGI: > 100 µM
[42]
  TGI: 93.1 µM
[43]
  TGI: > 100 µM
[57]
  TGI: > 100 µM
[44]
  TGI: > 100 µM
[45]
  TGI: > 100 µM

## O=c1c(Cl)c(Cl)cnn1CCCl
[1]
  TGI: 4.74 µM
[2]
  TGI: 10.8 µM
[3]
  TGI: 31.4 µM
[4]
  TGI: 21.7 µM
[46]
  TGI: 5.58 µM
[5]
  TGI: 4.84 µM
[6]
  TGI: 30.7 µM
[7]
  TGI: 18.9 µM
[8]
  TGI: 7.14 µM
[9]
  TGI: 9.39 µM
[10]
  TGI: 35.3 µM
[11]
  TGI: 1.12 µM
[12]
  TGI: > 47.1 µM
[13]
  TGI: 8.75 µM
[14]
  TGI: 5.18 µM
[58]
  TGI: 10.6 µM
[15]
  TGI: 3.48 µM
[16]
  TGI: 6.79 µM
[17]
  TGI: 52.4 µM
[48]
  TGI: 11.3 µM
[18]
  TGI: 14.1 µM
[19]
  TGI: 3.1 µM
[59]
  TGI: 13.9 µM
[49]
  TGI: 30.3 µM
[60]
  TGI: 14.6 µM
[20]
  TGI: 10.7 µM
[50]
  TGI: 21 µM
[21]
  TGI: 29.7 µM
[61]
  TGI: 12.8 µM
[22]
  TGI: 10.9 µM
[51]
  TGI: 34.5 µM
[23]
  TGI: 14.3 µM
[24]
  TGI: 6.46 µM
[25]
  TGI: 7.46 µM
[26]
  TGI: 7.69 µM
[27]
  TGI: 3.14 µM
[52]
  TGI: 11.7 µM
[28]
  TGI: 3.89 µM
[29]
  TGI: 6.58 µM
[30]
  TGI: 12.3 µM
[53]
  TGI: 23.1 µM
[31]
  TGI: 25.3 µM
[33]
  TGI: 8.25 µM
[34]
  TGI: 15.9 µM
[35]
  TGI: 34.5 µM
[54]
  TGI: 11.9 µM
[36]
  TGI: 3.85 µM
[37]
  TGI: 2.35 µM
[38]
  TGI: 16.4 µM
[39]
  TGI: 25.5 µM
[55]
  TGI: 24.1 µM
[56]
  TGI: 27.2 µM
[40]
  TGI: 17 µM
[62]
  TGI: 34 µM
[41]
  TGI: 29 µM
[42]
  TGI: 29.5 µM
[43]
  TGI: 6.53 µM
[57]
  TGI: 3.29 µM
[44]
  TGI: 15.2 µM
[45]
  TGI: 4.99 µM

## Clc1cccc(-c2nnc(-c3nn(-c4ccccc4)c4nc5ccccc5nc34)o2)c1
[1]
  TGI: > 100 µM
[2]
  TGI: > 100 µM
[3]
  TGI: > 100 µM
[4]
  TGI: > 100 µM
[46]
  TGI: > 100 µM
[5]
  TGI: > 100 µM
[6]
  TGI: > 100 µM
[7]
  TGI: > 100 µM
[8]
  TGI: > 100 µM
[9]
  TGI: > 100 µM
[10]
  TGI: > 100 µM
[47]
  TGI: > 100 µM
[11]
  TGI: > 100 µM
[12]
  TGI: > 100 µM
[13]
  TGI: > 100 µM
[14]
  TGI: > 100 µM
[16]
  TGI: > 100 µM
[17]
  TGI: > 100 µM
[48]
  TGI: > 100 µM
[18]
  TGI: > 100 µM
[19]
  TGI: > 100 µM
[49]
  TGI: > 100 µM
[20]
  TGI: > 100 µM
[50]
  TGI: > 100 µM
[21]
  TGI: > 100 µM
[22]
  TGI: > 100 µM
[51]
  TGI: > 100 µM
[23]
  TGI: > 100 µM
[24]
  TGI: > 100 µM
[25]
  TGI: > 100 µM
[26]
  TGI: > 100 µM
[27]
  TGI: > 100 µM
[52]
  TGI: > 100 µM
[28]
  TGI: > 100 µM
[29]
  TGI: > 100 µM
[30]
  TGI: > 100 µM
[53]
  TGI: > 100 µM
[31]
  TGI: > 100 µM
[32]
  TGI: > 100 µM
[33]
  TGI: > 100 µM
[34]
  TGI: > 100 µM
[35]
  TGI: > 100 µM
[54]
  TGI: > 100 µM
[36]
  TGI: > 100 µM
[37]
  TGI: > 100 µM
[38]
  TGI: > 100 µM
[39]
  TGI: > 100 µM
[55]
  TGI: > 100 µM
[56]
  TGI: > 100 µM
[40]
  TGI: > 100 µM
[42]
  TGI: > 100 µM
[43]
  TGI: > 100 µM
[57]
  TGI: > 100 µM
[44]
  TGI: > 100 µM
[45]
  TGI: > 100 µM
